Data taken from US20080221060A1, “Therapeutic Compounds” (priority 2004, published 2008).
Several values for one entry are separate records, joined by “and”; a condition that tells them apart may be missing. Identical values can stand only once. Like-named read-outs stand apart in the source and are kept apart here.

Columns and labels:
[1] = target: adenosine receptors (rat striatal membranes, [3H]-CGS21680) (Rattus norvegicus, UniProt P30543); assay: Ki from displacement of [3H]-CGS21680 in rat striatal membranes at pH 5.5 and pH 7.4; format: binding; design: from tissue; host or cells: rat striatum (membranes); conditions: for Ki: 2 nM [3H]-CGS21680, 90 minutes at 22° C.
[2] = target: rat A2A receptor (Rattus norvegicus, UniProt P30543); conditions: read-out: EC50 for stimulation of the rat A2A receptor; cited from earlier work
[3] = plasma concentrations after single oral dosing in human volunteers; format: in vivo
[4] = 20 mg/kg po; cited from earlier work
[5] = tested on: carrageenan (CGN) induced inflammation; assay: carrageenan induced paw inflammation (plethysmometry); format: in vivo; conditions: rat, 62.4 and 624 μg/kg i.p.; indomethacin 3 mg/kg po as comparator
Experimental: Carrageenan (2%, 10 microlitres) was administered into the right hind paw of a rat, and the paw volume assessed by plethysomometry. Spongosine was administered at the same time as carrageenan.

[6] = target: T1, adenosine A1 receptor (Cavia porcellus, UniProt P47745); conditions: guinea pig; read-out: EC50, adenosine A1 receptor, isolated heart preparation; cited from earlier work
T1 construct: host or cells: guinea pig isolated heart
T1 sequence (P47745 1-326): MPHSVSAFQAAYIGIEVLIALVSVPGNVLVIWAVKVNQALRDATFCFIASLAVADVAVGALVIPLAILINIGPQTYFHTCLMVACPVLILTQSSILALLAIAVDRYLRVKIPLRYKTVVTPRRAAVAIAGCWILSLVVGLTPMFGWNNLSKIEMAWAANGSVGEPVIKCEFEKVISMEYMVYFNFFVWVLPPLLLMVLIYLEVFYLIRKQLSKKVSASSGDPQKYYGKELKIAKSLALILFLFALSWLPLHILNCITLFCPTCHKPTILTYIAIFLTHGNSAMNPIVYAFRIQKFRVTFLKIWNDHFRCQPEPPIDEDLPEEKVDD

[7] = target: adenosine A2A receptor (UniProt P30543); assay: EC50 at the adenosine A2A receptor; format: biochemical
Text: (§1) For the avoidance of doubt, the EC50 value of a compound is defined herein as the concentration of the compound that provokes a receptor response halfway between the baseline receptor response and the maximum receptor response (as determined, for example, using a dose-response curve).
(§2) The EC50 value should be determined under standard conditions (balanced salt solutions buffered to pH 7.4). For EC50 determinations using isolated membranes, cells and tissues this would be in buffered salt solution at pH 7.4 (e.g. cell culture medium), for example as in Daly et al, Pharmacol. (1993) 46, 91-100), or preferably as in Tilburg et al (J. Med. Chem. (2002) 45, 91-100). The EC50 could also be determined in vivo by measuring adenosine receptor mediated responses in a normal healthy animal, or even in a tissue perfused under normal conditions (i.e. oxygenated blood, or oxygenated isotonic media, also buffered at pH 7.4) in a normal healthy animal.

[8] = tested on: carrageenan (CGN) induced thermal hyperalgesia; assay: carrageenan induced thermal hyperalgesia (CITH); format: in vivo; conditions: 0.624 mg/kg p.o.; indomethacin 3 mg/kg po as comparator
Experimental: A. […] Carrageenan (2%, 10 microlitres) was administered into the right hind paw. A heat source was placed close to the treated and untreated hind paws, and the difference in the paw withdrawal latencies is shown. Spongosine was administered at the same time as carrageenan.

[9] = tested on: chronic constriction injury model of neuropathic pain; assay: static allodynia, chronic constriction injury of the rat sciatic nerve; format: in vivo; conditions: rat CCI
Text: The total dose administered is shown on the horizontal axis, and the paw withdrawal threshold (PWT) on the vertical axis.

[10] = tested on: human macrophage cell line U937; assay: LPS induced TNF alpha release in U937 cells; format: cell-based; conditions: 100 ng/ml LPS, 3 hours
Experimental: Cells of human macrophage cell line U937 were grown in suspension to 500,000 cells/ml, plated out into 48 well plates, treated with 20 ng/ml PMA and incubated for 8 hours. Cells adhered to well bottoms and were washed and allowed to recover for 36 hours before use. […] After 3 hours the cell supernatants were assayed for TNF alpha using fluorescence labeled ELISA kits.

[11] = tested on: chronic constriction injury model of neuropathic pain; assay: thermal hyperalgesia, chronic constriction injury of the rat sciatic nerve; format: in vivo; conditions: rat CCI, 0.624 mg/kg p.o.
Text: After approximately two weeks the rats developed thermal hyperalgesia in the operated leg as judged by the difference in paw withdrawal latencies of the right and left paws.

[12] = tested on: carageenan-induced inflammation; conditions: rats, 20 mg/kg po; cited from earlier work
[13] = blood pressure and heart rate in rats (radiotelemetry); format: in vivo, rat
Text: An implantable radiotelemetry device was placed in the abdominal cavity of 6 rats per group. The pressure catheter of the device was inserted in the abdominal aorta and two electrodes tunnelised under the skin in a lead II position (left side of abdominal cavity/right shoulder). Individual rats were placed in their own cage on a radioreceptor (DSI) for data acquisition. A: blood pressure; B: heart rate.

[14] = target: T2, adenosine A2A receptor (Cavia porcellus, UniProt P46616); conditions: guinea pig; read-out: EC50, adenosine A2A receptor, isolated heart preparation; cited from earlier work
T2 construct: host or cells: guinea pig isolated heart

[15] = target: T3, rat adenosine A1 receptor (Rattus norvegicus, UniProt P25099); conditions: cited from earlier work
T3 sequence (P25099 1-326): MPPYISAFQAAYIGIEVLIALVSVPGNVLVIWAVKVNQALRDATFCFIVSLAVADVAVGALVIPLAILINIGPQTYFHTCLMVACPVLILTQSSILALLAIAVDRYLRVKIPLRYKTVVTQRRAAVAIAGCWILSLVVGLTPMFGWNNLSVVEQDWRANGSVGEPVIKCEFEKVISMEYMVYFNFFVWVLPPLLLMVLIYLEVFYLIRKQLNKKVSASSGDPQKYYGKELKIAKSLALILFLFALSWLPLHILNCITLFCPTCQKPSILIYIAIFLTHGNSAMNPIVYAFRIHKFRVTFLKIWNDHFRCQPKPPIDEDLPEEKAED

[16] = target: adenosine receptors (Rattus norvegicus, UniProt P30543); assay: EC50 at adenosine receptors measured at pH 7.4; format: biochemical; conditions: measured at pH7.4
Text: as §1, §2

[17] = tachycardia by 12 lead ECGs in human volunteers; format: in vivo
Experimental: Tachycardia was determined using 12 lead ECGs.

Sequence of adenosine receptors (rat striatal membranes, [3H]-CGS21680) (P30543 whole entry): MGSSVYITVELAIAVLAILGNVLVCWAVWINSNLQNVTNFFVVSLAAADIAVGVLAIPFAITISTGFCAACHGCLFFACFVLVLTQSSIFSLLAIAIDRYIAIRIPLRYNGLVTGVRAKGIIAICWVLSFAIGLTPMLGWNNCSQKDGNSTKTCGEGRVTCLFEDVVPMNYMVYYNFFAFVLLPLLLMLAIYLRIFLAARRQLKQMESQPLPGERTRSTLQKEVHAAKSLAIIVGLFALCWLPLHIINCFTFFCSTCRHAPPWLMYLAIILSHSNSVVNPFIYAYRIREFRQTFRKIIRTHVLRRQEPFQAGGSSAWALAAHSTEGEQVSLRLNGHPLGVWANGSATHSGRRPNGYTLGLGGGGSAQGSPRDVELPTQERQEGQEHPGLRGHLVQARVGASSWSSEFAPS
Sequence of adenosine receptors (P30543 whole entry): as above
T2 sequence (P46616 whole entry): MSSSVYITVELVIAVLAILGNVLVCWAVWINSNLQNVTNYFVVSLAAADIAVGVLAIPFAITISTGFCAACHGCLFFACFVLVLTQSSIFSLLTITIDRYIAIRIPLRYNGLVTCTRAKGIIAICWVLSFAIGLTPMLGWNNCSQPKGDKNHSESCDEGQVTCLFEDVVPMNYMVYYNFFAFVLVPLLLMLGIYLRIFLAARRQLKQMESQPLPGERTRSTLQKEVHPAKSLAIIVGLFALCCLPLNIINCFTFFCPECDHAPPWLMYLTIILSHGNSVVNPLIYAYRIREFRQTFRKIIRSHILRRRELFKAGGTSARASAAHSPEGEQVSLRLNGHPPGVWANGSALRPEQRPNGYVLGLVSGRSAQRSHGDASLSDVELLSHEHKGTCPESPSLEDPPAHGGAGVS
Sequence of rat A2A receptor (P30543 whole entry): as the sequence (P30543 whole entry) above

With COc1nc(N)c2ncn([C@@H]3O[C@H](CO)[C@@H](O)[C@H]3O)c2n1 [Compound 1, 2-methoxyadenosine] the Ki ([1]; pH 5.5, read-out: (Ki) nM (pH 5.5)) was 1.5 nM, the Ki ([1]; pH 7.4, read-out: (Ki) nM (pH 7.4)) was 1300 nM and the “affinity for adenosine receptors at pH below pH 7.4” value ([1]; pH below pH 7.4 compared with pH 7.4) was “increased affinity”. For the same molecule, the EC50 [2] was 3 µM, the Cmax ([3]; single oral dose 0.2 mg) was 10 ± 5 nM and the Cmax ([3]; single oral dose 0.8 mg) was 40 ± 20 nM. For the same molecule, the Cmax ([3]; single oral dose 3.5 mg) was 130 ± 40 nM, the Cmax ([3]; single oral dose 10.5 mg) was 300 ± 40 nM and the Cmax ([3]; single oral dose 21 mg) was 500 ± 100 nM. The Cmax ([3]; single oral dose 28 mg) was 600 ± 100 nM, the “reduction in heart rate” value [4] was 25% and the “reduction in mean blood pressure” value [4] was 41%. For the same molecule, the “inhibition of carrageenan induced inflammation (paw volume)” value [5] was “inhibits carrageenan (CGN) induced inflammation with comparable efficacy to indomethacin”, the EC50 [6] was 10 µM and the EC50 [7] was about 1 µM. For the same molecule, the “inhibition of carrageenan induced thermal hyperalgesia” value [8] was “inhibits carrageenan (CGN) induced thermal hyperalgesia (CITH) with comparable efficacy to indomethacin”, the “inhibition of static allodynia (paw withdrawal threshold)” value ([9]; […] p.o., presence and absence of naloxone (1 mg/kg s.c.)) was “inhibits static allodynia” and the “inhibition of static allodynia (paw withdrawal threshold)” value ([9]; p.o., dose response) was “inhibit static allodynia”. For the same molecule, the “inhibition of LPS induced TNF alpha release” value [10] was “inhibits LPS induced TNF release”, the “inhibition of thermal hyperalgesia (paw withdrawal latencies)” value [11] was “inhibits thermal hyperalgesia” and the “efficacy compared with carbamazepine” value ([11]; CBZ 100 mg/kg s.c.) was “as, or more, effective than carbamazepine”. The “inhibition of carageenan-induced inflammation” value [12] was 25%, the “effect on blood pressure” value ([13]; 62.4 and 624 μg/kg i.p.) was “do not affect blood pressure” and the “effect on blood pressure” value ([13]; normal rats, 0.624 mg/kg p.o.) was “no significant effect”. The “effect on heart rate” value ([13]; normal rats, 0.624 mg/kg p.o.) was “no significant effect”, the EC50 [14] was 0.7 µM and the Kd [15] was 0.34 µM. The EC50 [16] was 3.03 µM and 3 µM, the Tachycardia side effect ([17]; single oral dose 0.2 mg) was “No” and the Tachycardia side effect ([17]; single oral dose 0.8 mg) was “No”. For the same molecule, the Tachycardia side effect ([17]; single oral dose 3.5 mg) was “No”, the Tachycardia side effect ([17]; single oral dose 10.5 mg) was “No” and the Tachycardia side effect ([17]; single oral dose 21 mg) was “No”. For the same molecule, the Tachycardia side effect ([17]; single oral dose 28 mg) was “Yes”.
